Read-outs that look alike come from different tables or passages of the source. Peptide text beside a SMILES is read from it.
Legend:
[1] = molecular target: T1, human NK1 receptor (hNK1) (Homo sapiens, UniProt P25103); assay: Radioligand competition binding, [3H]-Substance P, hNK1
T1 construct: expressed in transfected cells

[2] = molecular target: T2, human δ opioid receptors (hDOR) (Homo sapiens, UniProt P41143); assay: Radioligand competition binding, [3H]DPDPE, hDOR membranes; conditions: for LogIC50, hDOR, [3H]DPDPE: membranes from transfected HN9.10 cells
T2 construct: expressed in transfected cells; host or cells: HN9.10 neuroblastoma cell line, pCDNA3, neomycin-selected clones
T2 sequence (P41143 whole entry): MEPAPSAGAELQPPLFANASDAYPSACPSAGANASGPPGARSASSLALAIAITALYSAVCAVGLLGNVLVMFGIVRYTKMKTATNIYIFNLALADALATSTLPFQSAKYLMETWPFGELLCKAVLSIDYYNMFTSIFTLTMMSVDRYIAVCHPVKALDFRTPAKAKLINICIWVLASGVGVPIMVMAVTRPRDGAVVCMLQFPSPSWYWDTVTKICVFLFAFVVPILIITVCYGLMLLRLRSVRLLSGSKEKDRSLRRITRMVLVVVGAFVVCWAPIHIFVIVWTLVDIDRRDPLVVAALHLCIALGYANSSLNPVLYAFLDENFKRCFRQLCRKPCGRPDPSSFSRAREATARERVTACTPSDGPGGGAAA

[3] = molecular target: T2, human δ opioid receptors (hDOR); assay: [35S]GTP-γ-S binding assay, hDOR; type: biochemical
[4] = test system: μ opioid receptors (GPI); assay: Guinea pig isolated ileum (GPI) assay, opioid agonist; set-up: GPI/LMMP Opioid(m) Agonist, % inh.: unit of the concentration uncertain;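 also: inhibition of electrically evoked contractions (0.1 Hz, 0.4 msec, supramaximal voltage) in organ baths at 37 °C, contraction height 3 min after each cumulative dose versus the 1 min before dosing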
[5] = molecular target: T3, rat NK1 (rNK1) receptor (Rattus norvegicus, UniProt P14600); assay: Radioligand competition binding, [3H]substance P, rNK1/CHO membranes; conditions: for IC50: membranes from transfected CHO cells
T3 construct: expressed in transfected cells; host or cells: CHO (rNK-1/CHO cell line from Dr. James Krause)
T3 sequence (P14600 whole entry): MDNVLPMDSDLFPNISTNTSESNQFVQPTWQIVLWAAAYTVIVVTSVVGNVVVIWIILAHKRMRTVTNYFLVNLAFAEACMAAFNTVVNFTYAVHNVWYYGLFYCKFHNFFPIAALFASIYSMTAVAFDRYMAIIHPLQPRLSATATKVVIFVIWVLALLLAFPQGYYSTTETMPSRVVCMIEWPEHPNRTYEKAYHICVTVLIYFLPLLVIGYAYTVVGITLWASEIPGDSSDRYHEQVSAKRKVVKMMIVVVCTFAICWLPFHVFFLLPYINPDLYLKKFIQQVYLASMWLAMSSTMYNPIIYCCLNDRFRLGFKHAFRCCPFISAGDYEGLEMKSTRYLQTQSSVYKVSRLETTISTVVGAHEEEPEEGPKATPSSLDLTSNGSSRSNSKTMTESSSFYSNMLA

[6] = molecular target: T4, δ opioid receptors (MVD) (Mus musculus, UniProt P32300); assay: Mouse isolated vas deferens (MVD) assay, opioid agonist
T4 construct: from tissue; host or cells: mouse (ICR) isolated vas deferens
T4 sequence (P32300 whole entry): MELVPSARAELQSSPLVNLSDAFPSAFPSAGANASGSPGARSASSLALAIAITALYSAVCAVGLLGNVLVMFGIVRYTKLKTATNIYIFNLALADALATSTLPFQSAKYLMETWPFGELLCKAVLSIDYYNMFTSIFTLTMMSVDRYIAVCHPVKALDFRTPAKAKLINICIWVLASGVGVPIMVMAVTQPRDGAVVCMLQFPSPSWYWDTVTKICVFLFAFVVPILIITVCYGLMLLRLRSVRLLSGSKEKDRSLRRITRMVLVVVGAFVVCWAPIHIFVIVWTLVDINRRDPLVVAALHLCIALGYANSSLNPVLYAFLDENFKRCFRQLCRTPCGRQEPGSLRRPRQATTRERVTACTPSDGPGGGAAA

[7] = molecular target: T5, Substance P receptors (guinea pig NK1) (Cavia porcellus, UniProt P30547); assay: Guinea pig isolated ileum (GPI) assay with substance P stimulation in presence of 1 μM naloxone; conditions: for activation at 1 µM: read-out: Substance P GPI agonist (A50), contraction relative to initial muscle contraction with KCl
T5 construct: from tissue; host or cells: guinea pig (Hartley) ileum LMMP, 1 μM naloxone present
T5 sequence (P30547 whole entry): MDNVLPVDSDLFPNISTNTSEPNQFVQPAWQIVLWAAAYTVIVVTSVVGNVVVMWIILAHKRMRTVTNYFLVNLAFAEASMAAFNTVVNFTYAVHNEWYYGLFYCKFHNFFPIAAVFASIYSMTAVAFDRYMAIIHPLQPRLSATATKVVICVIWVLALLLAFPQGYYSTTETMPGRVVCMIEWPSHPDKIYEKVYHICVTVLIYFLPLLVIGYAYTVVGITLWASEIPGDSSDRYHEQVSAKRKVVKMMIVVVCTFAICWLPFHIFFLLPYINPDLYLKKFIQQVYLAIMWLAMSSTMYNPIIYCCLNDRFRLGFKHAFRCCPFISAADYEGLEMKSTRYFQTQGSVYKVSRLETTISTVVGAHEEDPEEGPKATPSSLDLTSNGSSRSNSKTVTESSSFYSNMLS
Protocol: Testing stopped at 1 mM concentrations of the test compound.
Analysis of GPI and MVD assays. For opioid data analysis, percentage inhibition was calculated using the average tissue contraction height for 1 min preceding the addition of the agonist divided by the contraction height 3 min after exposure to the dose of agonist. […] IC50 and Emax estimates were determined by computerized nonlinear least-squares analysis (the pharmacological statistics package FlashCalc: Dr. Michael Ossipov, University of Arizona, Tucson, Ariz.). […] A50 values represent the mean of not less than 4 tissues. A50 and Emax estimates were determined by computerized nonlinear least-squares analysis (FlashCalc).

[8] = molecular target: T6, rat μ opioid receptors (rMOR) (Rattus norvegicus, UniProt P33535); assay: biochemical; type: biochemical; conditions: for EC50: read-out: GTP rMOR EC50
T6 construct: expressed in transfected cells; host or cells: HN9.10 neuroblastoma cell line, pCDNA3, neomycin-selected clones
T6 sequence (P33535 whole entry): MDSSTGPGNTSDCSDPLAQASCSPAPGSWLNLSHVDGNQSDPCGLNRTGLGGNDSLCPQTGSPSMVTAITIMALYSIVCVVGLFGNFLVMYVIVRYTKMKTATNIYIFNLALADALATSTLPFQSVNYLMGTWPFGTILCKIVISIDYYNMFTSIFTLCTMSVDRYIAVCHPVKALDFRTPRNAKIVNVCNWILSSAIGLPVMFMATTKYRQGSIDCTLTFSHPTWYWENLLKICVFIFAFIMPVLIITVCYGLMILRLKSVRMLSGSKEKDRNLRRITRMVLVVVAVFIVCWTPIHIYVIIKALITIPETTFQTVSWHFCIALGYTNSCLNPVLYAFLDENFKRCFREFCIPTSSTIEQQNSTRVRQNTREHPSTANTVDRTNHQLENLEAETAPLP

[9] = Table 27, read-out: GTP binding hDOR EC50
[10] = Table 27, read-out: GTP binding hDOR Emax (%)
[11] = Table 39, read-out: GTP binding hDOR EC50
[12] = Table 39, read-out: GTP binding hDOR Emax
[13] = net total bound/basal binding × 100, read-out: Emax, hDOR, [35S]GTP-γ-S binding
[14] = read-out: EC50, hDOR, [35S]GTP-γ-S binding
[15] = Table 28, read-out: GPI/LMMP Opioid(m) Agonist (IC50; nM)
[16] = Table 39, read-out: GPI/LMMP opioid(mu) agonist (IC50; nM)
[17] = electrically stimulated isolated tissue, read-out: GPI (μ), IC50
[18] = LogIC50, rNK1, Substance P radioligand
[19] = Table 39, read-out: MVD opioid(delta) agonist (IC50; nM)
[20] = Substance P antagonist, GPI, Ke, in the presence of 1 μM naloxone
[21] = Table 39, read-out: GTP binding rMOR Emax
[22] = Table 32, read-out: GTP hDOR EC50
[23] = Table 32, read-out: GTP hDOR EMax
[24] = Table 35, read-out: GPI/LMMP μ-agonist IC50
[25] = GPI/LMMP SP antagonist Ke (nM), Table 35
[26] = Table 32, read-out: GTP rMOR EMax
[27] = IC50, rNK1, Substance P radioligand
[28] = Table 28, read-out: MVD Opioid (d) Agonist (IC50; nM)
[29] = electrically stimulated isolated tissue, read-out: MVD (δ), IC50
[30] = read-out: GTP binding hDOR Emax

T1 sequence (P25103 whole entry): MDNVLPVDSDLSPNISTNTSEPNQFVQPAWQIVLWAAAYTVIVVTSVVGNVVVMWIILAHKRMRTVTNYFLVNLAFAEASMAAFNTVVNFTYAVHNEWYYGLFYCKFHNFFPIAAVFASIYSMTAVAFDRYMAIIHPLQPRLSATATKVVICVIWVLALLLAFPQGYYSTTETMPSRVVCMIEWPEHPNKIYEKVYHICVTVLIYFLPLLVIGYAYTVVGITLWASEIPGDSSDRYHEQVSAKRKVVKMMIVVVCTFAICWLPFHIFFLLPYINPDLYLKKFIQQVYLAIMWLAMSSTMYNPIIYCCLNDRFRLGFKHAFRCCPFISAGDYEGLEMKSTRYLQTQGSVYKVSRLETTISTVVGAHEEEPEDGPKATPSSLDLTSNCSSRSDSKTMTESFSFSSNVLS

## CCCC[C@H](NC(=O)[C@H](Cc1ccccc1)NC(=O)CNC(=O)[C@@H](C)NC(=O)[C@@H](N)Cc1c(C)cc(O)cc1C)C(=O)N1CCC[C@H]1C(=O)N[C@@H](CC(C)C)C(=O)N[C@@H](Cc1c[nH]c2ccccc12)C(=O)N(C)Cc1cc(C(F)(F)F)cc(C(F)(F)F)c1 [TY052]
[1]; Table 31, read-out: Affinity hNK1 (Ki; nM)
  Ki: 0.21 nM
[1]; Table 39, read-out: Affinity hNK1 (Ki; nM)
  Ki: 0.21 nM
[2]; Table 31, read-out: Affinity hDOR (Ki; nM)
  Ki: 0.46 nM
[2]; Table 39, read-out: Affinity hDOR (Ki; nM)
  Ki: 0.46 nM

## CCCC[C@H](NC(=O)[C@H](Cc1ccccc1)NC(=O)CNC(=O)[C@@H](C)NC(=O)[C@@H](N)Cc1ccc(O)cc1)C(=O)N1CCC[C@H]1C(=O)N[C@@H](CC(C)C)C(=O)N[C@@H](Cc1c[nH]c2ccccc12)C(=O)OCc1cc(C(F)(F)F)cc(C(F)(F)F)c1 [TY018, H-Tyr-D-Ala-Gly-Phe-Nle-Pro-Leu-Trp-O-3,5-Bzl(CF3)2]
[3]
  LogEC50, hDOR, [35S]GTP-γ-S binding: −8.40 ± 0.11
[3]; [9]
  EC50: 4 nM
[3]; [10]
  Emax: 131%
[3]; [11]
  EC50: 4 nM
[3]; [12]
  Emax: 131%
[3]; [13]
  Emax: 129%
[3]; [14]
  EC50: 4 nM
[4]; [15]
  IC50: 372 nM
[4]; [16]
  IC50: 372 nM
[4]; [17]
  IC50: 372 ± 65 nM
[5]; Ki, rNK1, text
  Ki: 14.8 nM
[5]; [18]
  IC50: 13.5 nM
[6]
  IC50: 16.8 ± 2.4 nM
[6]; [19]
  IC50: 16.8 nM
[7]; [20]
  Kb: 7.9 ± 1.9 nM
[7]
  activation at 1 µM: 0%
[2]
  LogIC50, hDOR, [3H]DPDPE: −8.42 ± 0.15

## CSCC[C@H](NC(=O)[C@H](Cc1ccccc1)NC(=O)CNC(=O)[C@@H](C)NC(=O)[C@@H](N)Cc1ccc(O)cc1)C(=O)N1CCC[C@H]1C(=O)N[C@@H](CC(C)C)C(=O)N[C@@H](Cc1c[nH]c2ccccc12)C(=O)O [TY043]
[3]; [12]
  Emax: 62%
[4]; [16]
  IC50: 272 nM
[6]
  IC50: 8.18 nM
[7]; Table 39
  GPI/LMMP SP antagonist (Ke; nM): no shift
[8]; [21]
  Emax: 36%
[2]
  Ki: 1.1 nM

## C[C@H](NC(=O)[C@H](Cc1ccccc1)NC(=O)CNC(=O)[C@@H](C)NC(=O)[C@@H](N)Cc1ccc(O)cc1)C(=O)N[C@@H](Cc1c[nH]c2ccccc12)C(=O)OCc1cc(C(F)(F)F)cc(C(F)(F)F)c1 [NP31] (HELM PEPTIDE1{Y.[dA].G.F.A.W.[FC(F)(F)c1cc(CO[*:1])cc(C(F)(F)F)c1]}$$$$V2.0; N-terminus assumed)
[3]; [22]
  EC50: 3.3 nM
[3]; [23]
  Emax: 91%
[4]; [24]
  IC50: 401 nM
[6]
  IC50: 6.4 nM
[7]; [25]
  Kb: 18.6 nM
[8]; Table 32
  EC50: 11 nM
[8]; [26]
  Emax: 50%
[2]
  Ki: 1.2 nM

## CC[C@H](NC(=O)[C@H](Cc1ccccc1)NC(=O)CNC(=O)[C@@H](C)NC(=O)[C@@H](N)Cc1ccc(O)cc1)C(=O)N[C@@H](Cc1c[nH]c2ccccc12)C(=O)OCc1cc(C(F)(F)F)cc(C(F)(F)F)c1 [NP33] (HELM PEPTIDE1{Y.[dA].G.F.[Abu].W.[FC(F)(F)c1cc(CO[*:1])cc(C(F)(F)F)c1]}$$$$V2.0; N-terminus assumed)
[3]; [22]
  EC50: 2.9 nM
[3]; [23]
  Emax: 43%
[4]; [24]
  IC50: 600 nM
[6]
  IC50: 12.4 nM
[7]; [25]
  Kb: 5.6 nM
[8]; Table 32
  EC50: 8.6 nM
[8]; [26]
  Emax: 32%
[2]
  Ki: 1.6 nM

## CC(C)C[C@H](NC(=O)[C@@H]1CCCN1C(=O)[C@H](CC[S+](C)[O-])NC(=O)[C@H](Cc1ccccc1)NC(=O)CNC(=O)[C@@H](C)NC(=O)[C@@H](N)Cc1ccc(O)cc1)C(=O)N[C@@H](Cc1c[nH]c2ccccc12)C(=O)OCc1cc(C(F)(F)F)cc(C(F)(F)F)c1 (stereo partly drawn) [TY023, H-Tyr-D-Ala-Gly-Phe-Met(O)-Pro-Leu-Trp-O-3,5-Bzl(CF3)2]
[3]
  LogEC50, hDOR, [35S]GTP-γ-S binding: −8.73 ± 0.20
[3]; [9]
  EC50: 1.8 nM
[3]; [10]
  Emax: 52.8%
[3]; [11]
  EC50: 1.8 nM
[3]; [12]
  Emax: 52.8%
[3]; [13]
  Emax: 53%
[3]; [14]
  EC50: 1.8 nM
[4]; [15]
  IC50: 154 nM
[4]; [16]
  IC50: 154 nM
[4]; [17]
  IC50: 154 nM
[5]; [27]
  IC50: 54.5 nM
[5]; Ki, rNK1, text
  Ki: 54.5 nM
[5]; Table 39, read-out: Affinity rNK1 (Ki; nM)
  Ki: 0.2 nM
[6]; [28]
  IC50: 33 nM
[6]; [19]
  IC50: 33 nM
[6]; [29]
  IC50: 33 nM
[7]; [20]
  Kb: 7.8 ± 4 nM
[2]
  LogIC50, hDOR, [3H]DPDPE: −7.92 ± 0.04
[2]; read-out: Ki, hDOR, [3H]DPDPE
  Ki: 4.8 nM

## CCCC[C@@H](C(=O)N1CCC[C@H]1C(=O)N[C@@H](CC(C)C)C(=O)N[C@@H](Cc1c[nH]c2ccccc12)C(=O)OCc1cc(C(F)(F)F)cc(C(F)(F)F)c1)N(C)C(=O)[C@H](Cc1ccccc1)NC(=O)CNC(=O)[C@@H](C)NC(=O)[C@@H](N)Cc1ccc(O)cc1 [TY019, H-Tyr-D-Ala-Gly-Phe-N-Me-Nle-Pro-Leu-Trp-O-3,5-Bzl(CF3)2]
[3]
  LogEC50, hDOR, [35S]GTP-γ-S binding: −6.44 ± 0.27
[3]; [14]
  EC50: 364 nM
[3]; read-out: Emax, hDOR, [35S]GTP-γ-S binding
  Emax: 316%
[3]; read-out: GTP binding hDOR EC50
  EC50: 364 nM
[3]; [30]
  Emax: 283%
[3]; read-out: GTP binding hDOR Emax (%)
  Emax: 283%
[4]; Table 28, at 1 (unit uncertain)
  GPI/LMMP Opioid(m) Agonist, % inh.: 12% inh. at 1 mM
[4]; Table 39, concentration not given
  GPI/LMMP opioid(mu) agonist, %: 11.90%
[4]; at 1 μM
  GPI (μ), effect at single concentration: 12% at 1 μM^b
[5]; [27]
  IC50: 135 nM
[5]; [18]
  IC50: 112 nM
[6]; [28]
  IC50: 188 nM
[6]; [19]
  IC50: 188 nM
[6]; [29]
  IC50: 188 ± 21 nM
[7]
  IC50: 4.6 nM
  activation at 1 µM: 2%
[7]; [20]
  Kb: 4.6 ± 1.2 nM
[7]; Table 28
  GPI/LMMP SP Agonist, % inh.: 2% inh. at 1 mM
[7]; Table 39, @ 1 uM
  GPI/LMMP SP Agonist, % @ 1 uM: 1.6%@ 1 uM
[2]
  LogIC50, hDOR, [3H]DPDPE: −6.79 ± 0.13

## CSCC[C@H](NC(=O)[C@H](Cc1ccccc1)NC(=O)CNC(=O)[C@@H](C)NC(=O)[C@@H](N)Cc1c(C)cc(O)cc1C)C(=O)N1CCC[C@H]1C(=O)N[C@@H](CC(C)C)C(=O)N[C@@H](Cc1c[nH]c2ccccc12)C(=O)NCc1cc(C(F)(F)F)cc(C(F)(F)F)c1 [TY032]
[3]; GTP binding hDOR EC50
  EC50: 1.2 nM
[3]; [30]
  Emax: 24%
[4]; Table 30, read-out: GPI/LMMP Opioid(m) Agonist (IC50; nM)
  IC50: 18.6 nM
[4]; [16]
  IC50: 18.6 nM
[6]
  IC50: 1.82 nM
[7]; Table 30
  GPI/LMMP Substance P Agonist (IC50; nM): None
[7]; Table 39, at 100 nM
  GPI/LMMP SP Agonist (IC50; nM): none
[1]
  Ki: 0.008 nM
[8]; [21]
  Emax: 74%
[2]
  Ki: 0.12 nM

## CSCC[C@H](NC(=O)[C@H](Cc1ccccc1)NC(=O)CNC(=O)[C@@H](C)NC(=O)[C@@H](N)Cc1ccc(O)cc1)C(=O)N1CCC[C@H]1C(=O)N[C@@H](CC(C)C)C(=O)N[C@@H](Cc1c[nH]c2ccccc12)C(=O)OCc1ccccc1 [TY029]
[3]; [11]
  EC50: 3.4 nM
[3]; [12]
  Emax: 98%
[4]; [16]
  IC50: 22.2 nM
[6]
  IC50: 7.62 nM
[8]; [21]
  Emax: 133%
[2]
  Ki: 1.3 nM

## CC(C)C[C@H](NC(=O)[C@@H]1CCCN1C(=O)[C@H](Cc1ccccc1)NC(=O)[C@H](Cc1ccccc1)NC(=O)CNC(=O)[C@@H](C)NC(=O)[C@@H](N)Cc1ccc(O)cc1)C(=O)N[C@@H](Cc1c[nH]c2ccccc12)C(=O)OCc1ccccc1 [TY014] (HELM PEPTIDE1{Y.[dA].G.F.F.P.L.W.[c1ccc(CO[*:1])cc1]}$$$$V2.0; N-terminus assumed)
[3]; [12]
  Emax: 137%
[8]; [21]
  Emax: 72.3%
[2]
  Ki: 11.5 nM

— patent US8026218B2, “Bifunctional analgesic compounds for opioid receptor agonists and neurokinin-1 receptor antagonists” (The University of Arizona, priority 2006, dated 2011)
